What was measured:
[1] = system: MCF-7; experiment: Anti-proliferation assay with +JQ1, Chalice synergy score; assay type: cell-based; details: combination with +JQ1, average
Procedure: (§1) Cells were thawed from a liquid nitrogen preserved state.
(§2) The calculation for synergy score is provided below.
(§3) If T≧V0:100*[1−(T−V0)/(V−V0)]
(§4) Cells were grown, treated and analyzed as described above, and synergy was calculated using the Chalice Software (Zalicus, Inc., Cambridge Mass.), described above. Cell lines used included T47D (human ductal breast epithelial tumor cell line), MCF (adenocarcinoma breast cancer cell line), MDA-MM468 (adenocarcinoma breast cancer cell line), HCC-70 (carcinoma, ductal breast cancer cell line), SKBR-3 (adenocarcinoma breast cancer cell line), MM-453 (adenocarcinoma breast cancer cell line).

[2] = system: SKBR-3; experiment: as above; assay type: cell-based; details: combination with +JQ1, average
Procedure: as §1, §2, §3, §4

[3] = system: HCC-70; experiment: as above; assay type: cell-based; details: combination with +JQ1, average
Procedure: as §1, §2, §3, §4

[4] = system: MM-453; experiment: as above; assay type: cell-based; details: combination with +JQ1, average
Procedure: as §1, §2, §3, §4

[5] = system: MM-468; experiment: as above; assay type: cell-based; details: combination with +JQ1, average
Procedure: as §1, §2, §3, §4

[6] = system: cancer cell lines (T47D, MCF, MDA-MM468, HCC-70, SKBR-3, MM-453); experiment: Anti-proliferation assay with +JQ1, cancer cell lines overall; assay type: cell-based; details: treatment with +JQ1
Procedure: as §4

[7] = system: T47-D; experiment: Anti-proliferation assay with +JQ1, Chalice synergy score; assay type: cell-based, human; details: combination with +JQ1, average
Procedure: as §1, §2, §3, §4

[8] = system: breast cancer cell line panel; experiment: Anti-proliferation assay, seventeen breast cancer cell line panel; assay type: cell-based; details: single agent, cell lines where the GI50 reached inhibition levels of greater than fifty percent, read-out: median GI50
From the text: Cells were thawed from a liquid nitrogen preserved state. […] After seventy-two hours, […] developed for endpoint analysis using ATPLite. […] The calculation for synergy score is provided below. […] Compound 1 had varying activity across the seventeen cell line panel.

[9] = system: caspase 3/7 activation in NCI-H441 cells; experiment: Caspase-Glo 3/7 assay; assay type: cell-based; details: 24 hours post-treatment, normalized to DMSO control, combination at 1:1
Procedure: Cell lines were maintained in the growth medium recommended by ATCC (American Type Culture Collection). […] The compounds were serially diluted in DMSO from the highest concentration of 30 μM (single compounds and in combination with constant a constant ratio of 1:1). […] The percentage of induction of apoptosis was normalized to DMSO control (no compound).

Row | SMILES | Chalice Calculated Synergy Scores, Averages [1] | Chalice Calculated Synergy Scores, Averages [2] | Chalice Calculated Synergy Scores, Averages [3] | Chalice Calculated Synergy Scores, Averages [4] | Chalice Calculated Synergy Scores, Averages [5] | Synergism [6] | Chalice Calculated Synergy Scores, Averages [7] | GI50 [8] | % Caspase activation Mean (n = 3) ([9]; 0.1 μM) | % Caspase activation Mean (n = 3) ([9]; 0.3 μM) | % Caspase activation Mean (n = 3) ([9]; 1 μM) | % Caspase activation Mean (n = 3) ([9]; 3 μM) | % Caspase activation Mean (n = 3) ([9]; 10 μM) | % Caspase activation Mean (n = 3) ([9]; 30 μM)
1 | CCN1C(=O)CNc2ncc(-c3ccc(-c4nc[nH]n4)nc3C)nc21 [Compound 1, 1-ethyl-7-(2-methyl-6-(1H-1,2,4-triazol-3-yl)pyridin-3-yl)-3,4-dihydropyrazino[2,3-b]pyrazin-2(1H)-one] | 7.37 | 9.59 | 12.05 | 16.37 | 17.26 | Synergism was observed | 8.74 | 140 nM |  |  |  |  |  | 
2 | O=C(NOCC1CC1)c1ccc(F)c(F)c1Nc1ccc(I)cc1Cl [CI-1040] |  |  |  |  |  |  |  |  | 98.6% | 104.1% | 96.6% | 99.3% | 103.9% | 124.2%
3 | CO[C@H]1CC[C@H](N2C(=O)CNc3ncc(-c4ccc(C(C)(C)O)nc4)nc32)CC1 [Compound 2, 7-(6-(2-hydroxypropan-2-yl)pyridin-3-yl)-1-((1r,4r)-4-methoxycyclohexyl)-3,4-dihydropyrazino-[2,3-b]pyrazin-2(1H)-one] | 2.07 | 6.14 | 5.98 | 7.03 | 11.58 | Synergism was observed | 4.02 |  | 69.9% | 66.4% | 67.7% | 77.7% | 80% | 85.5%
